Measured values published in patent publication US20160243254A1, “Theranostic Nanoprobes for Overcoming Cancer Multidrug Resistance and Methods” (Massachusetts Institute of Technology, priority 2015, published 2016).

How the values were obtained:
[1] = test system: resistant MDA-MB-231 mammary fat pad tumors; experiment: Tumor growth in orthotopic triple-negative breast cancer mice model after hydrogel implantation; format: in vivo, SCID mice; settings: day 14 post treatment
Text: In order to evaluate the efficiency of the dark-gold nanobeacon probes in sensing and in overcoming MDR in vivo, an orthotopic breast cancer mice model was developed by injecting resistant MDA-MD-231 cells to the mammary fat pad of female SCID hairless congenic mice. Efficacious and local delivery of the dark-gold nanobeacon probes was achieved by the implantation of a hydrogel disk on top of the triple-negative breast tumors. The hydrogel scaffold comprising polyamidoamine (PAMAM G5) dendrimer cross-linked with dextran aldehyde provided enhanced stability of the embedded nanoparticles.
Tumors in the mammary fat pad were induced in female SCID hairless congenic mice by injection of 5×10^6 resistant MDA-MB-231 cells stably expressing firefly luciferase, suspended in 50 μL of HBBS (Lonza, GA, USA) solution. For determination of tumor growth, individual tumors were measured using caliper, and tumor volume was calculated by Tumor volume (mm^3)=width×(length^2)/2. Treatments began when tumor volume reached about 100 mm^3. […]
In vivo imaging was used to track simultaneously tumor inhibition as measured by luciferase expression, nanobeacon probes before and after hybridization to the target and hydrogel stability monitored by fluorescence emission over a period of 14 days following hydrogel implantation.

[2] = test system: resistant MDA-MB-231 cells; experiment: MTT cell viability assay; format: cell-based; settings: 5-FU resistant MDA-MB-231 cells compared to parental cells
Procedure: Briefly, a standard MTT [3-(4,5-dimethylthiazol-2-yl)-2,5-diphenyltetrazoliumbromide] reduction assay was performed to determine the resistance status of the cells and the cytotoxicity of the gold nanobeacons.
Cells were seeded at a density of 1×10^5 cells per well in 24-well culture plates in complete DMEM (500 μL) with serum. After 24 hours of exposure, the medium was removed and the cells were washed twice with sterile PBS and 300 μL of fresh medium with serum was added. Then 16.7 μL of sterile MTT stock solution (5 mg/mL in PBS) was added to each well.
After incubation for an additional 2 hours, the medium was removed and the formazan crystals were resuspended in 300 μL of dimethyl sulfoxide (Sigma-Aldrich, USA). The solution was mixed and its absorbance was measured at 540 nm as a working wavelength and 630 nm as reference using a microplate reader (Varioskan Flash Multimode Reader, Thermo Scientific, MA, USA). The cell viability was normalized to that of cells cultured in the culture medium with PBS treatment.
In order to corroborate confocal and flow cytometry data and overcome 5-FU resistance, resistant MDA-MB-231 cells were incubated with increasing amounts of dark-gold nanobeacons with and without 5-FU, and evaluated by the imaging system IVIS®.

Structure (SMILES): O=c1[nH]cc(F)c(=O)[nH]1 [5-FU, 5-fluorouracil]
- effect on tumor (in words) [1]: no effect
- cell death after continuous exposure to drug [2]: absence of cell death
